Patent US9113629B2, “4-amino-6-(4-substituted-phenyl)-picolinates and 6-amino-2-(4-substituted-phenyl)-pyrimidine-4-carboxylates and their use as herbicides” (DOW AGROSCIENCES LLC, priority 2013, dated 2015)
Read-outs that look alike come from different tables or passages of the source.

What was measured:
Assay in all cases: Post-emergent Test III, herbicidal activity in wheat and barley
Assay type in all cases: in vivo
[1] = test system: HORSS: barley, including spring and winter (Hordeum vulgare); details: for pest or weed control at 35 g/ha / pest or weed control at 70 g/ha: Hordeum vulgare, post-emergence, 504 h, read-out: Visual Gorowth Reduction (%) 21 days After Application HORSS; for pest or weed control at 35 g/ha / pest or weed control at 70 g/ha / GR20 HORSS: 21 days after application; for GR20 HORSS: probit analysis
Procedure, shortened: (§1)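 Plants at the second to third true-leaf stage, grown in a greenhouse at about 18/17 °C with a 14 h photoperiod, were sprayed post-emergence at 187 L/ha with the high rate and ½× to 1/16× serial dilutions in an acetone/DMSO/crop-oil/surfactant carrier. Injury was rated visually at 21 d on a 0–100% scale, and GR20–GR90 were derived by probit analysis.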

[2] = test system: KCHSC: kochia (Kochia scoparia); details: for pest or weed control at 35 g/ha / pest or weed control at 70 g/ha: Bassia scoparia, post-emergence, 504 h; for pest or weed control at 35 g/ha: 35 g ai/ha; for pest or weed control at 70 g/ha: 70 g ai/ha; for GR50 KCHSC / GR80 KCHSC: probit analysis
Procedure, shortened: as §1

[3] = test system: VERPE: bird's-eye speedwell (veronica persica); details: 21 days after application; for pest or weed control at 35 g/ha / pest or weed control at 70 g/ha: Veronica persica, post-emergence, 504 h, read-out: Visual Gorowth Reduction (%) 21 days After Application VERPE; for pest or weed control at 35 g/ha: 35 g ai/ha; for pest or weed control at 70 g/ha: 70 g ai/ha; for GR50 VERPE / GR80 VERPE: probit analysis; for GR50 VERPE: dose for 50 percent growth reduction; for GR80 VERPE: dose for 80 percent growth reduction
Procedure, shortened: as §1

[4] = test system: SASKR: Russian thistle (Salsola iberica); details: for pest or weed control at 35 g/ha / pest or weed control at 70 g/ha: Salsola tragus, post-emergence, 504 h, read-out: Visual Gorowth Reduction (%) 21 days After Application SASKR; for pest or weed control at 35 g/ha / pest or weed control at 70 g/ha / GR50 SASKR / GR80 SASKR: 21 days after application; for GR50 SASKR / GR80 SASKR: probit analysis
Procedure, shortened: as §1

[5] = test system: VIOSS: wild pansy (Viola tricolor), field violet (Viola arvensis); details: for pest or weed control at 35 g/ha / pest or weed control at 70 g/ha: Viola tricolor, post-emergence, 504 h, read-out: Visual Gorowth Reduction (%) 21 days After Application VIOSS; for pest or weed control at 35 g/ha / pest or weed control at 70 g/ha / GR50 VIOSS / GR80 VIOSS: 21 days after application; for GR50 VIOSS / GR80 VIOSS: probit analysis
Procedure, shortened: as §1

[6] = test system: TRZSS: wheat, including spring and winter (Triticum aestivum); details: for pest or weed control at 35 g/ha / pest or weed control at 70 g/ha: Triticum aestivum, post-emergence, 504 h, read-out: Visual Gorowth Reduction (%) 21 days After Application TRZSS; for pest or weed control at 35 g/ha / pest or weed control at 70 g/ha / GR20 TRZSS: 21 days after application; for GR20 TRZSS: probit analysis
Procedure, shortened: as §1

[7] = test system: MATSS: scented mayweed (Matricaria chamomilla), pineappleweed (Matricaria matricarioides); details: for pest or weed control at 35 g/ha / pest or weed control at 70 g/ha: Matricaria chamomilla, post-emergence, 504 h; for pest or weed control at 35 g/ha: 35 g ai/ha; for pest or weed control at 70 g/ha: 70 g ai/ha; for GR50 MATSS / GR80 MATSS: probit analysis
Procedure, shortened: as §1

[8] = dose for 20 percent growth reduction (crop)
[9] = 21 days after application, read-out: Visual Gorowth Reduction (%) 21 days After Application KCHSC
[10] = dose for 50 percent growth reduction, 21 days after application
[11] = dose for 80 percent growth reduction, 21 days after application
[12] = dose for 50 percent growth reduction
[13] = dose for 80 percent growth reduction
[14] = 21 days after application, read-out: Visual Gorowth Reduction (%) 21 days After Application MATSS
[15] = Post-emergent Test III, 35 g ai/ha
[16] = Post-emergent Test III, 70 g ai/ha
[17] = Post-emergent Test III, dose for 20% growth reduction
[18] = Post-emergent Test III, read-out: Visual Growth Reduction (%) 21 Days After Application, KCHSC
[19] = Post-emergent Test III, 21 days after application, dose for 50% growth reduction
[20] = Post-emergent Test III, 21 days after application, dose for 80% growth reduction
[21] = Post-emergent Test III, dose for 50% growth reduction
[22] = Post-emergent Test III, dose for 80% growth reduction
[23] = Post-emergent Test III, read-out: Visual Growth Reduction (%) 21 Days After Application, MATSS

Nc1c(F)c(-c2ccc(I)c(F)c2F)nc(C(=O)O)c1Cl [Compound 141, 4-amino-3-chloro-6-(2,3-difluoro-4-iodophenyl)-5-fluoropicolinic acid]
pest or weed control at 35 g/ha ([1]; 35 g ai/ha): 85 to 94%
pest or weed control at 70 g/ha ([1]; 70 g ai/ha): 95 to 100%
GR20 HORSS [1, 8]: 1 g ai/ha
pest or weed control at 35 g/ha [2, 9]: 75 to 84%
pest or weed control at 70 g/ha [2, 9]: 85 to 94%
GR50 KCHSC [2, 10]: 7 g ai/ha
GR80 KCHSC [2, 11]: 28 g ai/ha
pest or weed control at 35 g/ha [3]: 75 to 84%
pest or weed control at 70 g/ha [3]: 85 to 94%
GR50 VERPE [3]: 14 g ai/ha
GR80 VERPE [3]: 43 g ai/ha
pest or weed control at 35 g/ha ([4]; 35 g ai/ha): 75 to 84%
pest or weed control at 70 g/ha ([4]; 70 g ai/ha): 85 to 94%
GR50 SASKR [4, 12]: 4 g ai/ha
GR80 SASKR [4, 13]: 40 g ai/ha
pest or weed control at 35 g/ha ([5]; 35 g ai/ha): 95 to 100%
pest or weed control at 70 g/ha ([5]; 70 g ai/ha): 95 to 100%
GR50 VIOSS [5, 12]: 7 g ai/ha
GR80 VIOSS [5, 13]: 11 g ai/ha
pest or weed control at 35 g/ha ([6]; 35 g ai/ha): 75 to 84%
pest or weed control at 70 g/ha ([6]; 70 g ai/ha): 85 to 94%
GR20 TRZSS [6, 8]: 1 g ai/ha
pest or weed control at 35 g/ha [7, 14]: 75 to 84%
pest or weed control at 70 g/ha [7, 14]: 95 to 100%
GR50 MATSS [7, 10]: 15 g ai/ha
GR80 MATSS [7, 11]: 33 g ai/ha

COC(=O)c1nc(-c2ccc(Br)cc2F)c(F)c(N)c1Cl [Compound 52]
pest or weed control at 35 g/ha ([1]; 35 g ai/ha): 85 to 94%
pest or weed control at 70 g/ha ([1]; 70 g ai/ha): 95 to 100%
GR20 HORSS [1, 8]: 1 g ai/ha
pest or weed control at 35 g/ha [2, 9]: 75 to 84%
pest or weed control at 70 g/ha [2, 9]: 85 to 94%
GR50 KCHSC [2, 10]: 5 g ai/ha
GR80 KCHSC [2, 11]: 38 g ai/ha
pest or weed control at 35 g/ha [3]: 75 to 84%
pest or weed control at 70 g/ha [3]: 95 to 100%
GR50 VERPE [3]: 20 g ai/ha
GR80 VERPE [3]: 37 g ai/ha
pest or weed control at 35 g/ha ([4]; 35 g ai/ha): 60 to 74%
pest or weed control at 70 g/ha ([4]; 70 g ai/ha): 75 to 84%
GR50 SASKR [4, 12]: 4 g ai/ha
GR80 SASKR [4, 13]: 84 g ai/ha
pest or weed control at 35 g/ha ([5]; 35 g ai/ha): 95 to 100%
pest or weed control at 70 g/ha ([5]; 70 g ai/ha): 95 to 100%
GR50 VIOSS [5, 12]: 12 g ai/ha
GR80 VIOSS [5, 13]: 19 g ai/ha
pest or weed control at 35 g/ha ([6]; 35 g ai/ha): 85 to 94%
pest or weed control at 70 g/ha ([6]; 70 g ai/ha): 85 to 94%
GR20 TRZSS [6, 8]: 1 g ai/ha
pest or weed control at 35 g/ha [7, 14]: 0 to 29%
pest or weed control at 70 g/ha [7, 14]: 60 to 74%
GR50 MATSS [7, 10]: 62 g ai/ha
GR80 MATSS [7, 11]: 91 g ai/ha

COC(=O)c1nc(-c2ccc(C(F)(F)F)c(F)c2)c(F)c(N)c1Cl [Compound 165]
Visual Growth Reduction (%) 21 Days After Application, HORSS [1, 15]: C (75-84)
Visual Growth Reduction (%) 21 Days After Application, HORSS [1, 16]: B (85-94)
GR20 HORSS [1, 17]: 9 g ai/ha
pest or weed control at 35 g/ha [2, 18]: 85 to 94%
pest or weed control at 70 g/ha [2, 18]: 85 to 94%
GR50 KCHSC [2, 19]: 9 g ai/ha
GR80 KCHSC [2, 20]: 30 g ai/ha
Visual Growth Reduction (%) 21 Days After Application, SASKR [4, 15]: C (75-84)
Visual Growth Reduction (%) 21 Days After Application, SASKR [4, 16]: B (85-94)
GR50 SASKR [4, 21]: 4 g ai/ha
GR80 SASKR [4, 22]: 46 g ai/ha
Visual Growth Reduction (%) 21 Days After Application, VIOSS [5, 15]: F (30-44)
Visual Growth Reduction (%) 21 Days After Application, VIOSS [5, 16]: D (60-74)
GR50 VIOSS [5, 21]: 55 g ai/ha
GR80 VIOSS [5, 22]: >140 g ai/ha
Visual Growth Reduction (%) 21 Days After Application, TRZSS [6, 15]: D (60-74)
Visual Growth Reduction (%) 21 Days After Application, TRZSS [6, 16]: C (75-84)
GR20 TRZSS [6, 17]: 8 g ai/ha
pest or weed control at 35 g/ha [7, 23]: 0 to 29%
pest or weed control at 70 g/ha [7, 23]: 45 to 59%
GR50 MATSS [7, 19]: 81 g ai/ha
GR80 MATSS [7, 20]: >140 g ai/ha
